We go through twelve compounds from ChEMBL document CHEMBL5260813, “An overview on the recent developments of 1,2,4-triazine derivatives as anticancer compounds” (Eur J Med Chem, 2017).

Series [1] concerns MDA-MB-231. Kind of series: Antiproliferative activity against human MDA-MB-231 cells assessed as inhibition of cell growth by MTT assay. Type of series: functional, cell-based. (In general: Tetrazolium dyes change colour on reduction, which living cells bring about.)
The test system of series [2] is MDA-MB-231. Kind of series: Antiproliferative activity against human MDA-MB-231 cells assessed as inhibition of cell growth by [3H]thymidine incorporation assay. It is filed as functional, cell-based. (Dividing cells build labelled thymidine or BrdU into new DNA.)
For series [3], the system named is MCF7. Kind of series: Antiproliferative activity against human MCF7 cells assessed as inhibition of cell growth by [3H]thymidine incorporation assay. Type of series: functional, cell-based.
Series [4] has as its system MCF7. Kind of series: Antiproliferative activity against human MCF7 cells assessed as inhibition of cell growth by MTT assay. Type of series: functional, cell-based.
Series [5] has as its system HL-60. Kind of series: Antiproliferative activity against human HL-60 cells assessed as inhibition of cell growth under normoxia condition incubated for 72 hrs by MTT assay. Type of series: functional, cell-based. To be noted: HL-60, 72 h.
Series [6] can be described thus: Ratio of IC50 for antiproliferative activity against human HL-60 cells assessed as inhibition of cell growth under normoxia condition to IC50 for antiproliferative activity against human HL-60 cells assessed as inhibition of cell growth under hypoxia condition. It is filed as functional.
Series [7] in a line: Ratio of IC50 for antiproliferative activity against human Eca-109 cells assessed as inhibition of cell growth under normoxia condition to IC50 for antiproliferative activity against human Eca-109 cells assessed as inhibition of cell growth under hypoxia condition. Type of series: functional.
Series [8] has as its system Bel-7402. Kind of series: Antiproliferative activity against human Bel-7402 cells assessed as inhibition of cell growth under normoxia condition incubated for 72 hrs by MTT assay. Type of series: functional, cell-based. To be noted: Bel-7402, 72 h.
Series [9] relates to MCF7. Kind of series: Antiproliferative activity against human MCF7 cells assessed as inhibition of cell growth under hypoxia condition incubated for 72 hrs by MTT assay. Type of series: functional, cell-based. To be noted: MCF7, 72 h.
Series [10] concerns ECa-109 cell line. Kind of series: Antiproliferative activity against human Eca-109 cells assessed as inhibition of cell growth under hypoxia condition incubated for 72 hrs by MTT assay. It is filed as functional, cell-based. To be noted: ECa-109, 72 h.
A short description of series [11]: Ratio of IC50 for antiproliferative activity against human PC-3 cells assessed as inhibition of cell growth under normoxia condition to IC50 for antiproliferative activity against human PC-3 cells assessed as inhibition of cell growth under hypoxia condition. It is filed as functional.
The test system of series [12] is MCF7. Kind of series: Antiproliferative activity against human MCF7 cells assessed as inhibition of cell growth under normoxia condition incubated for 72 hrs by MTT assay. It is filed as functional, cell-based. To be noted: MCF7, 72 h.
Series [13] relates to ECa-109 cell line. Kind of series: Antiproliferative activity against human Eca-109 cells assessed as inhibition of cell growth under normoxia condition incubated for 72 hrs by MTT assay. To be noted: ECa-109, 72 h. Type of series: functional, cell-based.
In series [14] the test system is PC-3. Kind of series: Antiproliferative activity against human PC-3 cells assessed as inhibition of cell growth under hypoxia condition incubated for 72 hrs by MTT assay. It is filed as functional, cell-based. To be noted: PC-3, 72 h.
Series [15] has as its system PC-3. Kind of series: Antiproliferative activity against human PC-3 cells assessed as inhibition of cell growth under normoxia condition incubated for 72 hrs by MTT assay. Type of series: functional, cell-based. To be noted: PC-3, 72 h.
Series [16] has as its system Bel-7402. Kind of series: Antiproliferative activity against human Bel-7402 cells assessed as inhibition of cell growth under hypoxia condition incubated for 72 hrs by MTT assay. It is filed as functional, cell-based. To be noted: Bel-7402, 72 h.
Series [17] in a line: Ratio of IC50 for antiproliferative activity against human Bel-7402 cells assessed as inhibition of cell growth under normoxia condition to IC50 for antiproliferative activity against human Bel-7402 cells assessed as inhibition of cell growth under hypoxia condition. Type of series: functional.
Series [18] has as its system HL-60. Kind of series: Antiproliferative activity against human HL-60 cells assessed as inhibition of cell growth under hypoxia condition incubated for 72 hrs by MTT assay. Type of series: functional, cell-based. To be noted: HL-60, 72 h.
Series [19] deals with T1, Interleukin-1 receptor-associated kinase 4 (Homo sapiens, UniProt Q9NWZ3).
T1 sequence (Q9NWZ3 whole entry): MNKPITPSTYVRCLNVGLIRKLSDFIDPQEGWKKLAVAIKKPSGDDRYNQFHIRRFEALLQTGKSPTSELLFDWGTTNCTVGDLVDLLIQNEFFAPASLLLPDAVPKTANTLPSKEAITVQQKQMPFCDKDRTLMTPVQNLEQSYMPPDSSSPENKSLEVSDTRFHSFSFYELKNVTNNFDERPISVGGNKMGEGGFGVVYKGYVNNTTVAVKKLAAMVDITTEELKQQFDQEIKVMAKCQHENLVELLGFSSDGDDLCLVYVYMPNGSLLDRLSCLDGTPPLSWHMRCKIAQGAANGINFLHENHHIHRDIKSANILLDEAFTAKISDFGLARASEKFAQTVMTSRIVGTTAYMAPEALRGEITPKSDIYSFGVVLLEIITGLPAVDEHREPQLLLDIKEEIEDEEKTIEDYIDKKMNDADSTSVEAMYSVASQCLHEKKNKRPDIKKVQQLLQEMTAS
Kind of series: Inhibition of human GST-tagged IRAK4 incubated for 30 mins in presence of ATP by fluorescent polarization assay.

For series [20], the target named is Cyclin-dependent kinase 2/cyclin E1 (Homo sapiens, UniProt P24941). Kind of series: Inhibition of CDK2/cyclin E1 (unknown origin) expressed in Sf9 cells.
The nature of series [21]: Cytotoxicity against human CEM cells assessed as inhibition of cell growth incubated for 72 hrs by MTT assay. Type of series: toxicity, cell-based. To be noted: CEM (CCRF-CEM) cells, pooled result: one value given for 5 cell lines, strains, targets or settings.
The subject of series [22] is MCF7. Kind of series: Cytotoxicity against human MCF7 cells assessed as inhibition of cell growth incubated for 72 hrs by MTT assay. It is filed as functional, cell-based. To be noted: MCF7, 72 h.
Series [23] in a line: Ratio of IC50 for antiproliferative activity against human MCF7 cells assessed as inhibition of cell growth under normoxia condition to IC50 for antiproliferative activity against human MCF7 cells assessed as inhibition of cell growth under hypoxia condition. Type of series: functional.
The test system of the next series is HepG2. Kind of series: Antiproliferative activity against human HepG2 cells assessed as cell growth inhibition by MTT assay. Type of series: functional, cell-based.
A further series concerns HCT-116. Kind of series: Antiproliferative activity against human HCT-116 cells assessed as inhibition of cell growth by MTT assay. Type of series: functional, cell-based.
Series [24] deals with Panel NCI-60 (60 carcinoma cell lines). Kind of series: Antiproliferative activity against human Panel NCI-60 (60 carcinoma cell lines) assessed as cell growth inhibition incubated for 48 hrs by SRB assay. It is filed as functional.

In brackets after ≈: the same amount, converted by molar mass.

One may read the IC50 as the concentration that gives 50% inhibition. Take `c1ccc(-c2nnc(SSc3nnc(-c4ccccc4)c(-c4ccccc4)n3)nc2-c2ccccc2)cc1`: the IC50 in the series on MDA-MB-231 [1] amounted to 25000 nM; in the series with MDA-MB-231 [2], 39000 nM; with MCF7 [3], 35000 nM; in the series with MCF7 [4] it was 25000 nM.

For `c1ccc(-c2cc(SN3CCOCC3)nnc2-c2ccccc2)cc1`, the IC50 in the series with MDA-MB-231 [1] amounted to 88000 nM; in the series on MDA-MB-231 [2] it was 84000 nM; in the series with MCF7 [3], 87000 nM; in the series with MCF7 [4], 91000 nM.

For `c1ccc(-c2cc(SN3CCCC3)nnc2-c2ccccc2)cc1`, the IC50 turned out to be 25000 nM with MDA-MB-231 [1], 40000 nM with MDA-MB-231 [2], 15000 nM with MCF7 [3] and 30000 nM with MCF7 [4].

Turning to `CCNc1n[n+]([O-])c2cc([N+](=O)[O-])ccc2[n+]1[O-]`, the IC50 with HL-60 [5], with Bel-7402 [8], with MCF7 [9], with ECa-109 cell line [10], in the series with MCF7 [12] and in the series on ECa-109 cell line [13] was 200 nM in each case. In addition, the IC50 in the series on PC-3 [14], in the series with PC-3 [15], in the series on Bel-7402 [16] and in the series on HL-60 [18] was 200 nM throughout. Moreover, the “Ratio IC50” value amounted to 1.4 in [6], 2.2 in series [7], 1.9 in series [11] and 1.6 in [17].

In the case of `Cn1cc(NC(=O)c2ccc3cnc(NC4CCCCC4N)nn23)c(C(N)=O)n1` (centres undefined), the IC50 in [19] is 0.7 nM.

For the compound `NC(=O)c1nn(CCO)cc1NC(=O)c1ccc2cnc(NC3CCCCC3N)nn12` (centres undefined), the IC50 in series [19] amounted to 3 nM.

For the compound `Oc1cccc(-n2nc(-c3cc(O)c(O)c(O)c3)c3nc(-c4ccc(Cl)cc4)nnc32)c1`, the IC50 turned out to be 17300 nM in series [20] and 1900 nM in the series with MCF7 [22]. For the same compound, in [21], the IC50 at 72 h worked out at 1900 nM.

For the compound `[O-][n+]1nc(NCc2ccccc2)[n+]([O-])c2ccc(Cl)cc21`, the IC50 in the series on HL-60 [5], in the series on Bel-7402 [8], in the series with MCF7 [9], with ECa-109 cell line [10], in the series on MCF7 [12] and with ECa-109 cell line [13] was 200 nM in each case. The IC50 in the series with PC-3 [14], with PC-3 [15], with Bel-7402 [16] and with HL-60 [18] was 200 nM throughout. Moreover, the “Ratio IC50” value amounted to 1 in [6]; 3.2 in series [7]; 1.1 in series [23]; 1.4 in series [11]; 1.8 in series [17].

Regarding `[O-][n+]1nc(Nc2ccccc2)[n+]([O-])c2ccc(Cl)cc21`, the IC50 with HL-60 [5], in the series on Bel-7402 [8], in the series on MCF7 [9], in the series on ECa-109 cell line [10], with MCF7 [12] and in the series on ECa-109 cell line [13] was 200 nM each time. Besides, the IC50 in the series with PC-3 [14], in the series on PC-3 [15], in the series on Bel-7402 [16] and in the series on HL-60 [18] was 200 nM each time. The “Ratio IC50” value amounted to 6.9 in [6], 2.8 in [7], 3 in series [23] and 1.3 in series [11].

Turning to `O=C(O)c1ccccc1-c1nn2c(=O)c(/C=C/c3cccs3)nnc2s1`, the IC50 in the series on HepG2 worked out at 8.34 µg/mL (≈ 21.8 µM); with HCT-116, 8.34 µg/mL (≈ 21.8 µM); in the series on MCF7 [4] it was 8.34 µg/mL.

Consider `Oc1cc(-c2nn(-c3cc(O)c(O)c(O)c3)c3nnc(-c4ccc(Cl)cc4)nc23)cc(O)c1O`, for which the values for the IC50 (in series [20]; in the series on MCF7 [22]) were 11000 nM and 770 nM, respectively. Also, the IC50 at 72 h in [21] amounted to 770 nM.

Usually GI50 stands for the concentration that inhibits growth by half. One may read the TGI as the concentration giving total growth inhibition. For the compound `O=C1CNN(CSc2nc3ccc(I)cc3c(=O)n2Cc2ccccc2)C=N1`, in [24], the GI50 is 22600 nM and the TGI was 61400 nM. Besides, the CC50 in series [24] (read-out: LC50 (the source's name)) is 89300 nM.
